Experimental data from US7488716B2 (priority 2001, dated 2009).
Where no end group is shown, it is not given here.

How the values were obtained:
perfused rat islets = experiment: Insulin secretion by perfused rat islets; type: cell-based; settings: 50 nM peptide, 8 mM glucose
Experimental: Sprague Dawley rats (275-320 g) were used as the source of donor islets. Briefly, the pancreas was filled with 10 ml of cold reconstituted Liberase RI (Boehringer Manheim), harvested and incubated with additional 5 ml enzyme solution in water bath for 30 minutes. Tissue suspension was washed twice with cold 10% FBS/Hanks buffer (Gibco), resuspended in 8 ml 25% ficoll (Sigma) and then layered with 5 ml each of 23%, 20% and 11% ficoll. The islets in the 20% layer after centrifugation were removed, washed twice with cold 10% FBS/Hank buffer and resuspended in 10% FBS/RPMI 1640 media (Sigma).
Insulin secretion of perfused rat islets mediated by some peptides of the invention was measured as follows. The bi-phasic responses of insulin release stimulated by these polypeptides were tested by islet perfusion. Fifty islets were loaded in the perifusion chamber and perifused with HEPES-KRB containing 3 mM glucose at 37° C. After 60 min, islets were exposed to buffer containing 8 mM glucose with or without peptide (50 nM) and perifused for another 30 min. Fractions of perifusate were collected at 1 or 5 minute intervals for insulin determination. Insulin was measured using an ELISA kit (Alpco Diagnostics, Windham, N.H.).

GLP-1 receptor [1] = target: T1, GLP-1 receptor (Rattus norvegicus, UniProt P32301); experiment: Competitive binding of peptide to the GLP-1 receptor in RINm5F cell plasma membranes (125I GLP-1); settings: read-out: GLP1 RIN IC50
T1 construct: endogenous in cells; host or cells: RINm5F cells
T1 sequence (P32301 22-463): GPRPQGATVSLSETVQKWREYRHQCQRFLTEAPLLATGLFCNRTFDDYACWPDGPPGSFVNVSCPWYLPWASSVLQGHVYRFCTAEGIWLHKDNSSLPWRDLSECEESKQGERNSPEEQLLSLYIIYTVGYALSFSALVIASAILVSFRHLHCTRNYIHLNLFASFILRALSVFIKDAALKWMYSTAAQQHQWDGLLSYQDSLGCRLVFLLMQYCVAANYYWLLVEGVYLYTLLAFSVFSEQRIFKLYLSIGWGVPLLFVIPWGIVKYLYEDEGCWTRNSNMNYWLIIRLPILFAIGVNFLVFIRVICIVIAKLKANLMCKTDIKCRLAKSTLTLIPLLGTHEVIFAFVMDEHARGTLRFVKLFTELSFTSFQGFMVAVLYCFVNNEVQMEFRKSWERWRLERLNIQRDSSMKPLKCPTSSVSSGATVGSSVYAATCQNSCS
Experimental: Flasks of RINm5F cells were washed with PBS, scraped in 20 mM Hepes-1 mM EDTA-250 mM sucrose buffer containing protease inhibitors (HES) and homogenized in a dounce homogenizer followed by repeated resuspension through a 23 gauge needle. Unbroken cells and nuclei were removed by centrifugation at 500×g for 5 minutes. The pellet was resuspended in HES buffer using a 23 gauge needle and the centrifugation was repeated. The supernatants from the two spins were combined and centrifuged at 40,000×g for 20 min. The resulting plasma membrane pellet was resuspended in HES buffer using a 23 gauge needle followed by a 25 gauge needle. Membranes were stored at −80° C. until use.
(§1) Competitive binding of some polypeptides of the invention to RINm5F cell plasma membranes was measured as follows. Ninety-six-well GF/C filtration plates (Millipore, Bedford, Mass.) were blocked with 0.3% PEI for at least one hour and washed twice with binding buffer consisting of 20 mM Tris, 2 mM EDTA, pH 7.5, 1 mg/ml BSA, and 1 mg/ml bacitracin. […] The plates were dried, scintillant was added to each well, and cpm per well determined using a Wallac Microbeta counter.

glucagon receptor = target: T2, glucagon receptor (Rattus norvegicus, UniProt P30082); experiment: Competitive binding of peptide to the glucagon receptor in rat liver plasma membranes (125I glucagon)
T2 construct: glucagon receptor present in the plasma membranes isolated from rat liver; from tissue; host or cells: rat liver plasma membranes
Experimental: The wet weight of the livers was determined and the tissue minced in 5 volumes of ice cold TES buffer and a slurry prepared using a polytron. All buffers and spins were kept at 4° C. The slurry was further homogenized using three strokes of a handheld dounce homogenizer. The homogenate was passed through several layers of cheesecloth and spun at 25,000×g for 10 minutes. Pellets were homogenized in 22.1 ml TES buffer using 10 strokes of a handheld dounce homogenizer. Twenty-seven point nine milliliters of 2.4 M sucrose in TE was added and mixed well. The homogenate was distributed among several tubes, and each tube was overlaid with 7 ml of TES buffer. The tubes were spun at 120,000×g for 60 minutes. The plasma membranes were removed from the interface that formed during the spin, diluted in TES and concentrated using a 15 minute spin at 200,000×g. The resulting pellet was again homogenized in 9.8 ml TES buffer, combined with 10.3 ml 2.4M sucrose, overlaid with 7 ml TES, and centrifuged at 180,000×g for 30 min. […] The final pellet was resuspended in TES. Plasma membranes were stored at −80° C. until ready for use.
as §1, with “rat liver” for “RINm5F cell”, “0.1%” for “0.3%”

rat hepatocytes = experiment: Glucose release from rat hepatocytes (inhibition of glucagon mediated glucose production); type: cell-based; settings: 1 nM glucagon, 100 nM peptide, 3 trials
Experimental: Hepatocytes were isolated according to a modified procedure of Berry and Friend (J. Cell. Biol. 43:506, 1969). A fed male Wistar rat was anesthetized with sodium pentobarbital (55 mg/kg, i.p.). The rat was placed on its back on the tray of the liver perfusion apparatus (37° C.), and its limbs were secured with laboratory tape. The ventrical surface was cleaned with 70% alcohol, and the abdominal cavity was opened with scissors to expose the liver, portal vein, hepatic artery and the posterior vena cava. Ligatures were placed loosely around the three vessels. A cannula was inserted into the portal vein and was secured with the ligature. […] An aliquot of cells was diluted with buffer, stained with 0.4% Trypan Blue and counted. […]
Rat hepatocytes were added into a flat bottom 96 well plate (2×10^5/100 μl/well) and pre-incubated in a 37° C. incubator with constant shaking and under 95% O2/5% CO2 flow for 10 minutes. […] The resulting supernatant was analyzed for glucose with hexokinase and glucose-6-phosphate dehydrogenase (Methods of Enzymatic Analysis, H. U. Bermeyer, Ed., Academic Press) and the A340 read on a fMAX plate reader (Molecular Devices, Sunnyvale, Calif.).
Glucose output was calculated after subtracting the amount of glucose produced in the unstimulated hepatocytes from each data point and the percent inhibition was calculated.

[2] = tested on: glucagon-mediated elevation in blood glucose; experiment: Glucagon-stimulated glucose production in fed Wistar rats; type: in vivo, rat; settings: iv, 0.3 nmol/kg glucagon plus 1 nmol/kg peptide
GLP-1 receptor [3] = target: T1, GLP-1 receptor; experiment: Peptide signaling through GLP-1 receptor, cAMP scintillation proximity assay in RINm5F cells; type: cell-based; settings: for GLP1 Relative Potency: EC50 of native GLP-1 (7-36) divided by EC50 of polypeptide x 100, cAMP in RINm5F cells
Experimental: The media was removed and the cells were washed twice with PBS. […] For assay of peptides conjugated with fatty acid, the BSA was omitted from the incubation buffer. The incubation buffer was removed, and the cells were lysed in the lysis reagent provided with the cAMP Scintillation Proximity Assay (SPA) direct screening assay system (Amersham Pharmacia Biotech Inc, Piscataway, N.J.). The amount of cAMP (in pmol) present in the lysates was determined following instructions provided with this kit.
The amount of cAMP (in pmol) produced at each concentration of peptide was plotted and analyzed by nonlinear regression using Prizm software to determine the EC50 for each peptide.

[4] = Intraperitoneal glucose tolerance testing (IPGTT) in rats or mice; type: in vivo; settings: ipGTT in mice 3 hours post dosing with 100 μg/kg peptide
Experimental: Blood glucose levels during intraperitoneal glucose tolerance testing in rats or mice by some polypeptides of the invention were measured as follows. The in vivo activity of the polypeptides of the invention when administered subcutaneously was examined in rats or mice. Rats or mice fasted overnight were given a subcutaneous injection of control or peptide (100 μg/kg). Basal blood glucose was measured prior to administration of peptides or three or 17 hours after administration of derivatized peptides, and the rats or mice were given 2 g/kg of glucose intraperitoneally. Blood glucose was measured again after 15, 30 and 60 minutes in rats or 30 and 60 minutes in mice.

[5] = tested on: dispersed rat islet cells; experiment: Insulin secretion from dispersed rat islet cells; type: cell-based; settings: 50 nM peptide, fold over control
Experimental: Insulin secretion of dispersed rat islets mediated by a number of peptides of the invention was measured as follows. Islets of Langerhans were isolated from SD rats (200-250 g) through a digestion procedure using collagenase. Dispersed islet cells were prepared through treatment with trypsin, seeded into 96 V-bottom plates and pelleted. Cells were cultured overnight in media. Media was aspirated and the cells were pre-incubated with Krebs-Ringer-HEPES buffer containing 3 mM glucose for 30 minutes at 37° C. Pre-incubation buffer was removed and cells were stimulated with Krebs-Ringer-HEPES buffer containing the appropriate glucose concentration (e.g., 8 mM), with and without peptides for an appropriate time at 37° C. […] A portion of supernatant was removed and its insulin content was measured by SPA. The results are expressed as fold over control (FOC). At a concentration of 50 nM, the polypeptide having an amino acid sequence shown in SEQ ID NO:27 increased insulin secretion from dispersed islet cells approximately 3-fold.

[6] = tested on: glucagon-mediated elevation in blood glucose; experiment: Glucagon-stimulated glucose production in fed Balb/C mice; type: in vivo

T2 sequence (P30082 27-485): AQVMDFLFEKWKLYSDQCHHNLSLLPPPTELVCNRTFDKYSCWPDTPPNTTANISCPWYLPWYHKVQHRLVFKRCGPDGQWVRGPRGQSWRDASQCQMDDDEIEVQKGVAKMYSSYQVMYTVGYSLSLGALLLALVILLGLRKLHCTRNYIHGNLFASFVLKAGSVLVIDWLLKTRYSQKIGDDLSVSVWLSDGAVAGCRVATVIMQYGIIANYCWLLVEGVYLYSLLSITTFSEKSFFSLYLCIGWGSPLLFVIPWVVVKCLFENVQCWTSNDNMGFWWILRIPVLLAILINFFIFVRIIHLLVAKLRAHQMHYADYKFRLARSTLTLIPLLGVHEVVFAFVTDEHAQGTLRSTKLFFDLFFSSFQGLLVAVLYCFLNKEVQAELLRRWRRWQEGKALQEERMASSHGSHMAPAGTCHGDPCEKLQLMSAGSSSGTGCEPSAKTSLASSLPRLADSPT

IC50 (GLP-1 receptor [1]) [nM]	IC50 (glucagon receptor) [nM]	GLP1 Relative Potency (GLP-1 receptor [3]) [%]	Emax (GLP-1 receptor [3]; RIN-m5F, read-out: % GLP1 max) [%]	% GLP1 max (GLP-1 receptor [3]; maximal cAMP activity relative to native GLP-1 (7-36), RINm5F cells) [%]	Substance	Increase of insulin secretion from perfused islets (perfused rat islets)	Inhibition of glucagon mediated glucose production (rat hepatocytes) [%]	Inhibition of glucagon-mediated elevation in blood glucose (dAUC) [2] [%]	In vivo Decrease IpGTT AUC [4] [%]	Increase of insulin secretion from dispersed islet cells [5]	% Inhibition ([6]; Balb/C mice, 10 μg/kg glucagon, 100 μg/kg peptide sc 17 h before) [%]	Glucose 15 min ([6]; Balb/C mice, 15 min after 10 μg/kg iv glucagon) [mg/dL]	Glucose Delta (15 − 0) ([6]; Balb/C mice, change over 15 min after glucagon) [mg/dL]	Glucose -Vehicle delta ([6]; Balb/C mice, delta minus vehicle group delta) [mg/dL]	% of 10 μg/kg Glucagon ([6]; Balb/C mice, glucose change relative to glucagon alone) [%]	Glucose 0 min ([6]; Balb/C mice, just prior to 10 μg/kg iv glucagon, peptide 100 μg/kg sc 17 h before) [mg/dL]	In vivo % Decrease glucagon stimulated blood glucose ([6]; glucagon challenge in mice 17 hours post dosing with 100 μg/kg peptide) [%]
2.2	69.3	13.4	98.1		HSQGTFTSDYAKYLDARRAKEFIAWLVKGR-NH2 [G27]	approximately 2 fold	47	63									
		0.7		98.3	HSQGTFTSDYARYLDARRAREFIKWLVRGRC(43kD) (HSQGTFTSDYARYLDARRAREFIKWLVRGRC(PEG 43kD); listed as Homo sapiens) [G4185, 43kD PEG linked to the cysteine residue]				36	approximately 3 fold	31	150	75	59	69	75	31
